Measured values as given in article PMC7031696 (Cell chemical biology, 2019).

Tested on: 3D7-MR4 trophozoite parasite-infected RBCs
Assay: Metabolomic profiling (hydrophilic metabolite changes, UHPLC-MS)
Format: cell-based, Plasmodium falciparum

CN(C)Cc1ccc(-c2cc3c(-c4ccc(CN(C)C)cc4)ccnc3[nH]2)cc1.O=C(O)C(F)(F)F [MMV022224]
Log2(fold changes) adenosine (metabolite adenosine, log2 fold change): 0.0000
Log2(fold changes) alanine/sarcosine (metabolite alanine/sarcosine, log2 fold change): 0.0223
Log2(fold changes) anthranilate (metabolite anthranilate, log2 fold change): 0.0000
Log2(fold changes) arginine (metabolite arginine, log2 fold change): 0.0000
Log2(fold changes) asparagine (metabolite asparagine, log2 fold change): 0.2620
Log2(fold changes) aspartate (metabolite aspartate, log2 fold change): -0.0524
Log2(fold changes) biotin (metabolite biotin, log2 fold change): 0.0000
Log2(fold changes) cCMP (metabolite cCMP, log2 fold change): 0.0000
Log2(fold changes) cGMP (metabolite cGMP, log2 fold change): 0.0000
Log2(fold changes) carnitine (metabolite carnitine, log2 fold change): 0.0000
Log2(fold changes) citrate/isocitrate (metabolite citrate/isocitrate, log2 fold change): -0.2505
Log2(fold change) of coenzyme A (metabolite coenzyme A): -0.6694
Log2(fold change) of cyclic-AMP (metabolite cyclic-AMP): 0.0000
Log2(fold change) of cytidine (metabolite cytidine): 0.1493
Log2(fold change) of dAMP (metabolite dAMP): 0.0000
Log2(fold change) of dATP (metabolite dATP): -0.1042
Log2(fold change) of dCDP (metabolite dCDP): -0.6243
Log2(fold change) of dCMP (metabolite dCMP): -0.5224
Log2(fold change) of dCTP (metabolite dCTP): -0.4073
Log2(fold change) of dGDP/ADP (metabolite dGDP/ADP): -0.4184
Log2(fold change) of dGMP/AMP (metabolite dGMP/AMP): -0.2434
Log2(fold change) of dGTP/ATP (metabolite dGTP/ATP): -0.1490
Log2(fold change) of dTDP (metabolite dTDP): 0.0000
Log2(fold change) of dTMP (metabolite dTMP): -0.1539
Log2(fold change) of dTTP (metabolite dTTP): -0.2628
Log2(fold change) of dUMP (metabolite dUMP): 0.0000
Log2(fold change) of dUTP (metabolite dUTP): 0.0000
Log2(fold change) of deoxyguanosine (metabolite deoxyguanosine): 0.0000
Log2(fold change) of deoxyinosine (metabolite deoxyinosine): 0.0000
Log2(fold change) of deoxyribose-phosphate (metabolite deoxyribose-phosphate): 0.0000
Log2(fold change) of deoxyuridine (metabolite deoxyuridine): 0.0000
Log2(fold change) of dihydroorotate (metabolite dihydroorotate): 0.4231
Log2(fold change) of folate (metabolite folate): 0.2103
Log2(fold change) of fructose-1-6-bisphosphate (metabolite fructose-1-6-bisphosphate): -0.0559
Log2(fold change) of fructose-6-phosphate (metabolite fructose-6-phosphate): 0.0000
Log2(fold change) of fumarate (metabolite fumarate): -0.4743
Log2(fold change) of glucono-lactone (metabolite glucono-lactone): 0.0000
Log2(fold change) of glucose-1/6-phosphate (metabolite glucose-1/6-phosphate): 0.0000
Log2(fold change) of glutamate (metabolite glutamate): -0.2593
Log2(fold change) of glutamine (metabolite glutamine): 0.1154
Log2(fold change) of glutathione (metabolite glutathione): -0.5102
Log2(fold change) glutathione disulfide (metabolite glutathione disulfide): -0.1758
Log2(fold change) glycerate (metabolite glycerate): 0.0000
Log2(fold change) guanine (metabolite guanine): -0.4489
Log2(fold change) guanosine (metabolite guanosine): 0.0000
Log2(fold change) histidine (metabolite histidine): 0.2818
Log2(fold change) homocysteic acid (metabolite homocysteic acid): 0.0000
Log2(fold change) hydroxyphenylpyruvate (metabolite hydroxyphenylpyruvate): 0.0000
Log2(fold change) hydroxyproline/Aminolevulinate (metabolite hydroxyproline/Aminolevulinate): -0.0239
Log2(fold change) hypoxanthine (metabolite hypoxanthine): 0.0610
Log2(fold change) indole (metabolite indole): 0.8345
Log2(fold change) inosine (metabolite inosine): -0.1646
Log2(fold change) isoleucine (metabolite isoleucine): -0.1407
Log2(fold change) lactate (metabolite lactate): -0.4343
Log2(fold change) leucine (metabolite leucine): 0.0081
Log2(fold change) lysine (metabolite lysine): 0.0000
Log2(fold change) malate (metabolite malate): -0.4038
Log2(fold change) maleic acid (metabolite maleic acid): -0.3811
Log2(fold change) methionine (metabolite methionine): 0.2971
Log2(fold change) myo-inositol (metabolite myo-inositol): 0.0000
Log2(fold change) nicotinamide mononucleotide (metabolite nicotinamide mononucleotide): 0.0000
Log2(fold change) nicotinate (metabolite nicotinate): -0.4667
Log2(fold change) ornithine (metabolite ornithine): 0.0000
Log2(fold change) orotate (metabolite orotate): -0.1913
Log2(fold change) orotidine-5'-phosphate (metabolite orotidine-5'-phosphate): -0.1124
Log2(fold change) oxaloacetate (metabolite oxaloacetate): 0.0000
Log2(fold change) p-aminobenzoate (metabolite p-aminobenzoate): 0.0000
Log2(fold change) p-hydroxybenzoate (metabolite p-hydroxybenzoate): 0.0000
Log2(fold change) pantothenate (metabolite pantothenate): -0.1562
Log2(fold change) phenylalanine (metabolite phenylalanine): -0.0454
Log2(fold change) phenylpyruvate (metabolite phenylpyruvate): 0.0000
Log2(fold change) phosphoenolpyruvate (metabolite phosphoenolpyruvate): -0.1663
Log2(fold change) prephenate (metabolite prephenate): 0.0000
Log2(fold change) proline (metabolite proline): -0.1446
Log2(fold change) pyridoxine (metabolite pyridoxine): 0.0000
Log2(fold change) pyruvate (metabolite pyruvate): -0.5314
Log2(fold change) riboflavin (metabolite riboflavin): 0.4707
Log2(fold change) ribose (metabolite ribose): 0.0000
Log2(fold change) ribose-phosphate (metabolite ribose-phosphate): 0.0000
Log2(fold change) ribulose-5-phosphate (metabolite ribulose-5-phosphate): -0.0752
Log2(fold change) serine (metabolite serine): 0.2570
Log2(fold change) sn-glycerol-3-phosphate (metabolite sn-glycerol-3-phosphate): 0.2730
Log2(fold change) succinate/Methylmalonic acid (metabolite succinate/Methylmalonic acid): -0.4610
Log2(fold change) succinyl-CoA/methylmalonyl-CoA (metabolite succinyl-CoA/methylmalonyl-CoA): -0.1003
Log2(fold change) taurine (metabolite taurine): 0.0000
Log2(fold change) thiamine (metabolite thiamine): 0.0000
Log2(fold change) threonine/homoserine (metabolite threonine/homoserine): 0.2231
Log2(fold change) thymidine (metabolite thymidine): 0.0000
Log2(fold changes) thymine (metabolite thymine, log2 fold change): 0.0000
Log2(fold changes) trehalose-6-Phosphate (metabolite trehalose-6-Phosphate, log2 fold change): 0.0000
Log2(fold changes) tryptophan (metabolite tryptophan, log2 fold change): 0.5432
Log2(fold changes) tyrosine (metabolite tyrosine, log2 fold change): 0.1420
Log2(fold changes) uridine (metabolite uridine, log2 fold change): 0.0000
Log2(fold changes) valine (metabolite valine, log2 fold change): -0.1357
Log2(fold changes) xanthine (metabolite xanthine, log2 fold change): 0.0000
Log2(fold changes) xanthosine-5-phosphate (metabolite xanthosine-5-phosphate, log2 fold change): -0.1792
Log2(fold changes) xanthosine (metabolite xanthosine, log2 fold change): -1.8994
Log2(fold changes) xylose (metabolite xylose, log2 fold change): 0.0000
